Where a name gives a salt, the structure may show the parent alone. Read-outs that look alike come from different tables or passages of the source.
Legend:
JARID1B = target: T1, JARID1B (Homo sapiens, UniProt Q9UGL1); assay: FLAG-JARID1B histone demethylase assay with AlphaScreen detection (HTS and dose response); format: biochemical; details: for inhibition at 20 µM: read-out: Inhibitory effect (percent); for Validation result of HTS active: effect of the compound in the JARID1B AlphaScreen demethylase assay / Assay Signal (percent): validation of HTS actives; for Validation result of HTS active: effect of the compound in the JARID1B AlphaScreen demethylase assay: total signal before subtraction of artifact signal; for Assay − Artifact Signal (percent): assay signal minus artifact signal; for Assay Signal (percent): effect of compound in JARID1B AlphaScreen assay;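 on Assay Signal (percent): compound tested at 20 µM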;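 on Assay − Artifact Signal (percent): compound tested at 20 µM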;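 on all read-outs here: FLAG-tagged JARID1B at 4 nM acting on a biotinylated H3K4me3 peptide, demethylation read by AlphaScreen luminescence, with hits checked against bio-H3K4me2 without enzyme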
T1 construct: The FLAG tagged full length JARID1B enzyme was expressed in Sf21 insect cells using FLAG-JARID1B baculoviruses; FLAG (N); made in house; host or cells: Sf21 insect cells (baculovirus)

[1] = AlphaScreen counterscreen against bio-H3K4me2 peptide in the absence of enzyme (artifact signal); details: for Artifact Signal (percent): effect of the compound when incubated with bio-H3K4me2 peptide (counterscreen, no enzyme); for Artifact signal: effect of the compound when it is incubated with bio-H3K4me2 peptide: counterscreen, no enzyme;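 on all read-outs here: counterscreen run without enzyme against bio-H3K4me2 peptide to remove false positive hits from the JARID1 demethylase AlphaScreen screen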
[2] = high-throughput screen, compound 20 μM, standard demethylase conditions (10 μM α-KG, 50 μM Fe (II))
[3] = high-throughput screen, compound 20 μM, IDs marked *: additional hits under reaction condition with 1 mM α-KG
[4] = dose response at 15 μM (low) Fe (II), read-out: IC50 (μM) low Fe (II)
[5] = dose response at 50 μM (high) Fe (II), read-out: IC50 (μM) high Fe (II)

T1 sequence (Q9UGL1 whole entry): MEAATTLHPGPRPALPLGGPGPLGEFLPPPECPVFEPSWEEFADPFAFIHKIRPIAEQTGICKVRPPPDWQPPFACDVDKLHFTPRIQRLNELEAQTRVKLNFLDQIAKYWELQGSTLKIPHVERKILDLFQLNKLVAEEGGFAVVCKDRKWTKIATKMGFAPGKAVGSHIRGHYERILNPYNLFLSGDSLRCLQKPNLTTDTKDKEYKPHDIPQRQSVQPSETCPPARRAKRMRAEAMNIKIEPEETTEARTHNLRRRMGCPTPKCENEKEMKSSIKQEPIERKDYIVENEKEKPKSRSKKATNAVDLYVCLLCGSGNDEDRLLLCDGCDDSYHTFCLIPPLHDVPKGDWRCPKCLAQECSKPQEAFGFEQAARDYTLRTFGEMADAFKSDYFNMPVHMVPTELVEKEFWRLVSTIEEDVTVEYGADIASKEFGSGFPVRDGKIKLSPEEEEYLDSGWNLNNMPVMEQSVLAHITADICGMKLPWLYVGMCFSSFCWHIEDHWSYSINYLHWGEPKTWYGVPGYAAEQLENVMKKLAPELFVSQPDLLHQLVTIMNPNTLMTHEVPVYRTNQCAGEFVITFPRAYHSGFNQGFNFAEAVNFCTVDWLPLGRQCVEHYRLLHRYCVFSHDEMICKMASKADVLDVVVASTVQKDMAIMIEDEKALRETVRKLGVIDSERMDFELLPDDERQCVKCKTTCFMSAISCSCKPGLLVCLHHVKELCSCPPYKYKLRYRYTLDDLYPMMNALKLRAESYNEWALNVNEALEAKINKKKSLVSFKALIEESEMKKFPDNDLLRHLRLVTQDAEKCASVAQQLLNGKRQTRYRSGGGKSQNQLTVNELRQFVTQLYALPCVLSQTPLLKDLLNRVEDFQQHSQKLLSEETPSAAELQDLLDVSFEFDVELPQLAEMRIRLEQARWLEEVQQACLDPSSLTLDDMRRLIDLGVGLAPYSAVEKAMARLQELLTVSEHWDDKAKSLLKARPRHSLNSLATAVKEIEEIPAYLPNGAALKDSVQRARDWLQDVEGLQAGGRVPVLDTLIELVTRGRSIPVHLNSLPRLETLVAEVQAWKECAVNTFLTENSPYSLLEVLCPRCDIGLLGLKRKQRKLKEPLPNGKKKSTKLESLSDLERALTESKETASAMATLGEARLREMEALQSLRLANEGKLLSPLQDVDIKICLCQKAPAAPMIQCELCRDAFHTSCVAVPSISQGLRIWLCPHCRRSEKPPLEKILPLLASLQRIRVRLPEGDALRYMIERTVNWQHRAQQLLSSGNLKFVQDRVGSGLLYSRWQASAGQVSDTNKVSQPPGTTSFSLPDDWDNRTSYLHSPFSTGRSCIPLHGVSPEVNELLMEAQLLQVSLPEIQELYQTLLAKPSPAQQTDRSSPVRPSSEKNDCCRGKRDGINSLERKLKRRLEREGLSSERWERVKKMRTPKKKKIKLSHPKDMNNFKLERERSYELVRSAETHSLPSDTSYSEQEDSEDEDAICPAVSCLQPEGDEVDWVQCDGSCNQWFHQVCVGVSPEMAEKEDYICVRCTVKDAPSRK

CC(=O)O[C@H]1C[C@@]2(C)[C@@H](C[C@@H](O)[C@H]3[C@@]4(C)CC[C@@H](O)[C@@H](C)[C@@H]4CC[C@@]32C)/C1=C(\CCC=C(C)C)C(=O)O [YU033837, FUSIDIC ACID, reference compound]
inhibition at 20 µM (JARID1B; [2]): 63.1%
Validation result of HTS active: effect of the compound in the JARID1B AlphaScreen demethylase assay (JARID1B): 0.93

Cc1c2c(=O)n(-c3nc4ccccc4s3)[nH]c2cc(=O)n1CCN1CCOCC1 [YU172087]
Assay − Artifact Signal (percent) (JARID1B): 21.21%
inhibition at 20 µM (JARID1B; [2]): 56.4%
Assay Signal (percent) (JARID1B): 14.44%
Artifact Signal (percent) [1]: −6.77%

O=C(O)CC(CC(=O)Nc1cc(C(F)(F)F)ccc1N1CCOCC1)c1ccccc1 (centres unmarked) [YU016748]
Assay − Artifact Signal (percent) (JARID1B): 8.43%
inhibition at 20 µM (JARID1B; [2]): 104%
Assay Signal (percent) (JARID1B): 19.64%
Artifact Signal (percent) [1]: 11.20%

O=C1c2ccccc2C(=O)c2c(NCCc3ccc(O)cc3)ccc(NCCc3ccc(O)cc3)c21 [YU019467, BML-266, reference compound]
Assay − Artifact Signal (percent) (JARID1B): 20.91%
inhibition at 20 µM (JARID1B; [3]): 42.1%
Assay Signal (percent) (JARID1B): 76.09%
Artifact Signal (percent) [1]: 55.18%

CNC(C(=O)N(C)OC)C(C)C (centres unmarked) [YU035100]
Assay − Artifact Signal (percent) (JARID1B): 11.75%
inhibition at 20 µM (JARID1B; [2]): 88%
Assay Signal (percent) (JARID1B): 13.14%
Artifact Signal (percent) [1]: 1.39%

N#CC(=Cc1ccc(O)c(O)c1)C(N)=O (single isomer, unassigned) [YU154833, TYRPHOSTIN 46, reference compound]
Assay − Artifact Signal (percent) (JARID1B): 46.11%
inhibition at 20 µM (JARID1B; [2]): 76.8%
Assay Signal (percent) (JARID1B): 50.42%
Artifact Signal (percent) [1]: 4.32%

Cc1cccc(OCC(=O)Nc2ccccc2OC(F)F)c1C [YU152564]
inhibition at 20 µM (JARID1B; [2]): 99.6%
Validation result of HTS active: effect of the compound in the JARID1B AlphaScreen demethylase assay (JARID1B): 9.13
Artifact signal: effect of the compound when it is incubated with bio-H3K4me2 peptide [1]: 4.29

CC(=O)Nc1ccc(N(C)CCCc2c(C)nn(C)c2C)c(C(=O)O)c1 [YU208230]
inhibition at 20 µM (JARID1B; [2]): 38.5%
Validation result of HTS active: effect of the compound in the JARID1B AlphaScreen demethylase assay (JARID1B): 24.45
Artifact signal: effect of the compound when it is incubated with bio-H3K4me2 peptide [1]: 17.72

O=C1NC(=O)C(c2ccc(Cl)cc2)N1 (centres unmarked) [YU145089]
inhibition at 20 µM (JARID1B; [2]): 78.3%
Validation result of HTS active: effect of the compound in the JARID1B AlphaScreen demethylase assay (JARID1B): 4.23
Artifact signal: effect of the compound when it is incubated with bio-H3K4me2 peptide [1]: −1.01

CC(C)n1c(-c2ccccc2F)n[nH]c1=S [YU145747]
Assay − Artifact Signal (percent) (JARID1B): 31.49%
inhibition at 20 µM (JARID1B; [2]): 31.3%
Assay Signal (percent) (JARID1B): 36.22%
Artifact Signal (percent) [1]: 4.74%

O=c1ccc2cc(O)c(O)cc2o1 [YU155534, ESCULETIN, reference compound]
Artifact Signal (percent) [1]: 6.30%

CC[C@H]1OC(=O)[C@H](C)[C@@H](OC2CC(C)(OC)C(O)C(C)O2)[C@H](C)[C@@H](S2(C)(=O)NC3C(N(C)C)CC(C)NC32)[C@](C)(O)C[C@@H](C)/C(=N\C)[C@H](C)[C@@H](O)[C@]1(C)O (some centres unmarked) [YU035181]
Artifact Signal (percent) [1]: 4.88%

C[CH2][Hg][S]c1ccccc1C(=O)[O-] [YU034023, THIMEROSAL, reference compound]
Artifact signal: effect of the compound when it is incubated with bio-H3K4me2 peptide [1]: −5.81

O=c1c(O)c(-c2ccc(O)c(O)c2)oc2c(O[C@@H]3O[C@H](CO)[C@@H](O)[C@H](O)[C@H]3O)c(O)cc(O)c12 [YU155353, GOSSYPIN, reference compound]
inhibition at 20 µM (JARID1B; [2]): 89%

CC(=O)[O][Hg][c]1ccccc1 [YU034074, PHEN[…], ACETATE, reference compound]
Artifact signal: effect of the compound when it is incubated with bio-H3K4me2 peptide [1]: −10.79

Cc1noc2c1C(c1ccc(O)c(O)c1)C1=C(CCCC1=O)N2 (centres unmarked) [YU185529]
inhibition at 20 µM (JARID1B; [2]): 61.5%

Cn1nnnc1SCC1=C(C(=O)O)N2C(=O)[C@H](NC(=O)C(O)c3ccccc3)C2SC1 (stereo in doubt) [YU034265, CEFAMANDOLE SODIUM, reference compound]
inhibition at 20 µM (JARID1B; [3]): 40.5%

Cl.Oc1cc2c(cc1O)[C@H]1c3ccccc3CN[C@@H]1CC2 [YU221065, Benzo[a]phenanthridine-10,11-diol, 5,6,6a,7,8,12b-hexahydro-, trans-, reference compound]
Assay − Artifact Signal (percent) (JARID1B): 55.73%
inhibition at 20 µM (JARID1B; [2]): 49.1%
Assay Signal (percent) (JARID1B): 59.95%

O=c1ccc2cc(O)c(O)cc2o1 [Esculetin, esculetin, reference compound]
IC50 (JARID1B; [4]): 2.57 µM
IC50 (JARID1B; [5]): 4.6 µM

O=c1c2cc(O)c(O)cc2oc2cc(O)c([C@@H]3O[C@H](CO)[C@@H](O)[C@H](O)[C@H]3O)c(O)c12 [YU155356, MANGIFERIN, reference compound]
inhibition at 20 µM (JARID1B; [2]): 98.8%

CC(C)(O)[C@@H]1[C@H]2OC(=O)[C@@H]1[C@]1(O)C[C@H]3O[C@]34C(=O)O[C@H]2[C@]14C [YU033619, PICROTIN, reference compound]
inhibition at 20 µM (JARID1B): 46.9%
Validation result of HTS active: effect of the compound in the JARID1B AlphaScreen demethylase assay (JARID1B): −12.66

O=C(OC[C@H]1O[C@@H](OC(=O)c2cc(O)c(O)c(OC(=O)c3cc(O)c(O)c(O)c3)c2)[C@H](OC(=O)c2cc(O)c(O)c(OC(=O)c3cc(O)c(O)c(O)c3)c2)[C@@H](OC(=O)c2cc(O)c(O)c(OC(=O)c3cc(O)c(O)c(O)c3)c2)[C@@H]1OC(=O)c1cc(O)c(O)c(OC(=O)c2cc(O)c(O)c(O)c2)c1)c1cc(O)c(O)c(OC(=O)c2cc(O)c(O)c(O)c2)c1 (stereo in doubt) [YU155507, TANNIC ACID, reference compound]
Inhibitory effect (percent) (JARID1B; [2]): 105.46%

O=C(O)/C=C/c1ccc(O)c(O)c1 [Caffeic acid, reference compound]
IC50 (JARID1B; [4]): 1.71 µM
IC50 (JARID1B; [5]): 2.88 µM

Cc1cc(/C=C/c2ccc3cc(N(C)C)ccc3[n+]2C)c(C)n1-c1ccccc1 [YU034547, PYRVINIUM PAMOATE, reference compound]
inhibition at 20 µM (JARID1B; [2]): 64.4%
Validation result of HTS active: effect of the compound in the JARID1B AlphaScreen demethylase assay (JARID1B): −3.96

O=c1c2ccccc2[se]n1-c1ccccc1 [YU034226, EBSELEN, reference compound]
inhibition at 20 µM (JARID1B; [3]): 56.5%
inhibition at 20 µM (JARID1B; [2]): 41.4%

O=C1c2c(O)ccc(O)c2C(=O)c2c(NCCNCCO)ccc(NCCNCCO)c21 [YU034420, MITOXANTHRONE HYDROCHLORIDE, reference compound]
Assay − Artifact Signal (percent) (JARID1B): 10.55%
inhibition at 20 µM (JARID1B; [2]): 101%
Assay Signal (percent) (JARID1B): 99.87%

O=c1c2ccccc2[se]n1-c1ccccc1 [Ebselen, ebselen, reference compound]
IC50 (JARID1B; Fe (II) concentration not stated, read-out: IC50 against JARID1B): ~6 µM
IC50 (JARID1B; [4]): 7.63 µM
IC50 (JARID1B; [5]): 5.17 µM

Cn1c(/C(C#N)=C/c2ccncc2)nc2ccccc21 [ChemBridge 6339039]
IC50 (JARID1B; [4]): 1.8 µM
IC50 (JARID1B; [5]): 1.31 µM

Cn1c(=O)n(C)c2cc(S(=O)(=O)NNc3ccccc3)ccc21 [YU152899]
inhibition at 20 µM (JARID1B; [2]): 49.6%

O=C(O[C@@H]1Cc2c(O)cc(O)cc2O[C@@H]1c1cc(O)c(O)c(O)c1)c1cc(O)c(O)c(O)c1 [YU155090, EPIGALLOCATECHIN-3- MONOGALLATE, reference compound]
Inhibitory effect (percent) (JARID1B; [2]): 98.42%

OC1CCCCC1N1CCC(c2ccccc2)CC1 (centres unmarked) [YU034447, VESAMICOL HYDROCHLORIDE, reference compound]
Assay − Artifact Signal (percent) (JARID1B): 8.85%
inhibition at 20 µM (JARID1B): 40.5%
Assay Signal (percent) (JARID1B): 8.67%

c1ccc2c(c1)CCCC2C1=NCCN1 (centres unmarked) [YU034020, TETRAHYDROZOLINE HYDROCHLORIDE, reference compound]
inhibition at 20 µM (JARID1B; [3]): 99.2%
Validation result of HTS active: effect of the compound in the JARID1B AlphaScreen demethylase assay (JARID1B): −5.13

O=C(O[C@@H]1Cc2c(O)cc(O)cc2O[C@@H]1c1ccc(O)c(O)c1)c1cc(O)c(O)c(O)c1 [YU155085, EPICATECHIN MONOGALLATE, reference compound]
inhibition at 20 µM (JARID1B; [2]): 99.5%

TYROTHRICIN [YU034048, reference compound]
Inhibitory effect (percent) (JARID1B; [2]): 68.66%

N#C/C(=C\c1ccncc1)c1nc2cc(C(F)(F)F)ccc2s1 [ChemBridge 7812182]
IC50 (JARID1B; [4]): 1.66 µM
IC50 (JARID1B; [5]): 1.15 µM

O=C(Nc1ccc(N2Cc3ccccc3OC(c3ccccc3)C2)c(C(=O)O)c1)c1ccccc1F (centres unmarked) [YU208215]
inhibition at 20 µM (JARID1B; [2]): 44.6%

Cc1ccccc1C(OCCN(C)C)c1ccccc1 (centres unmarked) [YU033938, ORPHENADRINE CITRATE, reference compound]
Artifact Signal (percent) [1]: 0.79%

COc1cccc2c1C(=O)c1c(O)c3c(c(O)c1C2=O)C[C@@](O)(C(C)=O)C[C@@H]3O[C@H]1C[C@H](N)[C@H](O)[C@H](C)O1 [YU155188, DAUNORUBICIN, reference compound]
inhibition at 20 µM (JARID1B; [2]): 74.7%

Cc1cc(C)nc(N(C#N)C(=S)N(C)C)n1 [YU145655]
inhibition at 20 µM (JARID1B; [2]): 54.7%
